Test results taken from patent US20230203081A1, “LINCOSAMIDE ANTIBIOTICS AND USES THEREOF” (President and Fellows of Harvard College, priority 2020, published 2023).
Converted amounts (≈) assume the structure as drawn.

How the values were obtained:
Assay type in all cases: cell-based
[1] = test system: E. coli ΔTolC; test: microbe, parasite or virus in culture; settings: Escherichia coli, E. coli ΔTolC
Experimental: (§1) Minimum inhibitory concentrations (MICs) were determined by broth microdilution method or agar dilution method following the Clinical and Laboratory Standards Institute guidelines. Standard bacterial strains were obtained from American Type Culture Collection (ATCC). Other bacterial strains were obtained from hospitals and commercial sources, so noted in Table 11. […] Specialized procedures were employed for streptococcal and anaerobic strains. All other bacterial strains were sub-cultured on blood agar plates (tryptic soy agar with 5% sheep blood, Hardy Diagnostics) and incubated overnight at 35° C. […] Suspensions were further diluted to obtain a final inoculum of 5×10^5 CFU/mL for broth microdilution experiments.

[2] = test system: E. faecium Clinical VRE; test: MIC (broth microdilution or agar dilution, CLSI); settings: Enterococcus faecium; E. faecium Clinical VRE; read-out: MIC
Experimental: (§2) Minimum inhibitory concentrations (MICs) were determined by broth microdilution method or agar dilution method following the Clinical and Laboratory Standards Institute guidelines. Standard bacterial strains were obtained from American Type Culture Collection (ATCC). Other bacterial strains were obtained from hospitals and commercial sources, so noted in Table 11. Before the start of the MIC experiment, standard and test compound stock solutions were prepared in dimethyl sulfoxide (DMSO, Aldrich D2650) at a stock concentration of 5,120 μg/mL. The compound concentration range typically employed for each experiment was 128-0.06 μg/mL (2.5% final DMSO concentration). Clindamycin was used as a comparator in all experiments and each experiment was performed in triplicate. Specialized procedures were employed for streptococcal and anaerobic strains. All other bacterial strains were sub-cultured on blood agar plates (tryptic soy agar with 5% sheep blood, Hardy Diagnostics) and incubated overnight at 35° C. Organisms were suspended in cation-adjusted Mueller-Hinton broth (CaMHB, BD 212322) and optical density was adjusted to 0.5 McFarland standard. Suspensions were further diluted to obtain a final inoculum of 5×10^5 CFU/mL for broth microdilution experiments.

[3] = test system: S. aureus cErmA; test: MIC (broth microdilution or agar dilution, CLSI); settings: Staphylococcus aureus; S. aureus cErmA; read-out: MIC
Experimental: as §2

[4] = test system: E. coli ATCC 25922; test: MIC (broth microdilution or agar dilution, CLSI); settings: Escherichia coli, ATCC25922; E. coli ATCC 25922; read-out: MIC
Experimental: as §1

[5] = test system: E. coli LptD; test: MIC (broth microdilution or agar dilution, CLSI); settings: Escherichia coli, E. coli LptD; read-out: MIC
Experimental: as §1

[6] = test system: E. faecalis ATCC 29212; test: MIC (broth microdilution or agar dilution, CLSI); settings: Enterococcus faecalis, ATCC29212, E. faecalis ATCC 29212; read-out: MIC
Experimental: as §1

[7] = test system: K. oxytoca Clinical; test: MIC (broth microdilution or agar dilution, CLSI); settings: Klebsiella oxytoca; K. oxytoca Clinical; read-out: MIC
Experimental: as §1

[8] = test system: S. aureus ATCC 29213; test: MIC (broth microdilution or agar dilution, CLSI); settings: Staphylococcus aureus, ATCC29213, S. aureus ATCC 29213; read-out: MIC
Experimental: as §1

[9] = test system: S. pneumoniae ATCC 49619; test: MIC (broth microdilution or agar dilution, CLSI); settings: Streptococcus pneumoniae, ATCC49619, S. pneumoniae ATCC 49619; read-out: MIC
Experimental: as §1

[10] = test system: S. pyogenes ATCC 19615; test: MIC (broth microdilution or agar dilution, CLSI); settings: Streptococcus pyogenes, ATCC19615, S. pyogenes ATCC 19615; read-out: MIC
Experimental: as §1

[11] = test system: broad panel of different clinical isolates; test: microbe, parasite or virus in culture; settings: Staphylococcus aureus, norA
Experimental: as §1

Row | Compound | MIC [1] | MIC [2] | MIC [3] | MIC [4] | MIC [5] | MIC [6] | MIC [7] | MIC [8] | MIC [9] | MIC [10] | MIC ([11]; S. aureus HAV#051, mecA, spcl, ermA, aad1, aac6′-aph2″) | MIC ([11]; S. aureus HAV#052, mecA, fosB, blaZ) | MIC ([11]; S. aureus HAV#053 mecA, fosB) | MIC ([11]; S. aureus HAV#054, mecA, spcl, aad1, fosB, ermA, aac6′-aph2″, blaZ)
1 | CS[C@H]1O[C@H]([C@H](NC(=O)[C@H]2NC[C@@H]3C[C@H](CC(C)C)CCO[C@H]32)C(C)C(F)(F)F)[C@H](O)[C@H](O)[C@H]1O (mixture of isomers) [FSA-09-04-081, (4S,5aS,8S,8aR)-4-Isobutyl-N-((1R)-3,3,3-trifluoro-2-methyl-1-((2R,3R,4S,5R,6R)-3,4,5-trihydroxy-6-(methylthio)tetrahydro-2H-pyran-2-yl)propyl)octahydro-2H-oxepino[2,3-c]pyrrole-8-carboxamide] | 2 µg/mL (≈ 3.78 µM) | 0.25 µg/mL (≈ 0.473 µM) | 8 µg/mL (≈ 15.1 µM) | 32 µg/mL (≈ 60.5 µM) | 2 µg/mL (≈ 3.78 µM) | 0.125 µg/mL (≈ 0.236 µM) | 32 µg/mL (≈ 60.5 µM) | 0.125 µg/mL (≈ 0.236 µM) | 0.125 µg/mL (≈ 0.236 µM) | 0.125 µg/mL (≈ 0.236 µM) |  |  |  | 
2 | NCC[C@H](O)C(=O)N[C@@H]1C[C@H](N)[C@@H](O[C@H]2O[C@H](CN)[C@@H](O)[C@H](O)[C@H]2O)[C@H](O)[C@H]1O[C@H]1O[C@H](CO)[C@@H](O)[C@H](N)[C@H]1O [Amikacin] |  |  |  |  |  |  |  |  |  |  | 4 µg/mL (≈ 6.83 µM) | 4 µg/mL (≈ 6.83 µM) | 4 µg/mL (≈ 6.83 µM) | 64 µg/mL (≈ 109 µM)
3 | CS[C@H]1O[C@H]([C@H](NC(=O)[C@H]2NC[C@@H]3C[C@H](CC(C)C)CCO[C@H]32)[C@@H](C)O)[C@H](O)[C@H](O)[C@H]1O [FSA-09-04-072, (4S,5aS,8S,8aR)-N-((1R,2R)-2-Hydroxy-1-((2R,3R,4S,5R,6R)-3,4,5-trihydroxy-6-(methylthio)tetrahydro-2H-pyran-2-yl)propyl)-4-isobutyloctahydro-2H-oxepino[2,3-c]pyrrole-8-carboxamide] | 1 µg/mL (≈ 2.1 µM) | 0.5 µg/mL (≈ 1.05 µM) | 32 µg/mL (≈ 67.1 µM) | 16 µg/mL (≈ 33.6 µM) | 2 µg/mL (≈ 4.2 µM) | 0.25 µg/mL (≈ 0.525 µM) | 16 µg/mL (≈ 33.6 µM) | 1 µg/mL (≈ 2.1 µM) | 0.5 µg/mL (≈ 1.05 µM) | 0.5 µg/mL (≈ 1.05 µM) |  |  |  | 
4 | CS[C@H]1O[C@H]([C@H](NC(=O)[C@H]2NC[C@@H]3C[C@H](CC(C)C)CCO[C@H]32)[C@H](C)Sc2ccc(CCN(C)C)cc2)[C@H](O)[C@H](O)[C@H]1O [FSA-09-04-087, (4S,5aS,8S,8aR)-N-((1S,2S)-2-((4-(2-(Dimethylamino)ethyl)phenyl)thio)-1-((2R,3R,4S,5R,6R)-3,4,5-trihydroxy-6-(methylthio)tetrahydro-2H-pyran-2-yl)propyl)-4-isobutyloctahydro-2H-oxepino[2,3-c]pyrrole-8-carboxamide] | 1 µg/mL (≈ 1.56 µM) | 4 µg/mL (≈ 6.25 µM) | 8 µg/mL (≈ 12.5 µM) | 16 µg/mL (≈ 25 µM) | 1 µg/mL (≈ 1.56 µM) | 0.5 µg/mL (≈ 0.781 µM) | 16 µg/mL (≈ 25 µM) | 1 µg/mL (≈ 1.56 µM) | 0.5 µg/mL (≈ 0.781 µM) | 0.5 µg/mL (≈ 0.781 µM) |  |  |  | 
5 | CS[C@H]1O[C@H]([C@H](NC(=O)[C@H]2NC[C@@H]3C[C@H](CC(C)C)CCO[C@H]32)[C@H](C)Sc2nnc(N)s2)[C@H](O)[C@H](O)[C@H]1O [FSA-09-04-094, (4S,5aS,8S,8aR)-N-((1S,2S)-2-((5-Amino-1,3,4-thiadiazol-2-yl)thio)-1-((2R,3R,4S,5R,6R)-3,4,5-trihydroxy-6-(methylthio)tetrahydro-2H-pyran-2-yl)propyl)-4-isobutyloctahydro-2H-oxepino[2,3-c]pyrrole-8-carboxamide] | 32 µg/mL (≈ 54.1 µM) | 128 µg/mL (≈ 216 µM) | 128 µg/mL (≈ 216 µM) | > 128 µg/mL | 64 µg/mL (≈ 108 µM) | 2 µg/mL (≈ 3.38 µM) | > 128 µg/mL | 4 µg/mL (≈ 6.76 µM) | 0.5 µg/mL (≈ 0.845 µM) | 1 µg/mL (≈ 1.69 µM) |  |  |  | 
6 | CS[C@H]1O[C@H]([C@H](NC(=O)[C@H]2NC[C@@H]3C[C@H](CC(C)C)CCO[C@H]32)[C@H](C)Sc2nnc(N3CCNCC3)s2)[C@H](O)[C@H](O)[C@H]1O [FSA-09-05-011, (4S,5aS,8S,8aR)-4-Isobutyl-N-((1S,2S)-2-((5-(piperazin-1-yl)-1,3,4-thiadiazol-2-yl)thio)-1-((2R,3R,4S,5R,6R)-3,4,5-trihydroxy-6-(methylthio)tetrahydro-2H-pyran-2-yl)propyl)octahydro-2H-oxepino[2,3-c]pyrrole-8-carboxamide] | 2 µg/mL (≈ 3.03 µM) | 32 µg/mL (≈ 48.4 µM) | 64 µg/mL (≈ 96.8 µM) | 32 µg/mL (≈ 48.4 µM) | 8 µg/mL (≈ 12.1 µM) | 2 µg/mL (≈ 3.03 µM) | 64 µg/mL (≈ 96.8 µM) | 4 µg/mL (≈ 6.05 µM) | 1 µg/mL (≈ 1.51 µM) | 1 µg/mL (≈ 1.51 µM) |  |  |  | 
7 | CS[C@H]1O[C@H]([C@H](NC(=O)[C@H]2NC[C@@H]3C[C@H](CC(C)C)CCO[C@H]32)[C@H](C)Sc2ccc(CN3CCOCC3)cc2)[C@H](O)[C@H](O)[C@H]1O [FSA-09-05-68, (4S,5aS,8S,8aR)-4-Isobutyl-N-((1S,2S)-2-((4-(morpholinomethyl)phenyl)thio)-1-((2R,3R,4S,5R,6R)-3,4,5-trihydroxy-6-(methylthio)tetrahydro-2H-pyran-2-yl)propyl)octahydro-2H-oxepino[2,3-c]pyrrole-8-carboxamide] | 2 µg/mL (≈ 2.99 µM) | 4 µg/mL (≈ 5.99 µM) | 8 µg/mL (≈ 12 µM) | 32 µg/mL (≈ 47.9 µM) | 2 µg/mL (≈ 2.99 µM) | 1 µg/mL (≈ 1.5 µM) | 32 µg/mL (≈ 47.9 µM) | 2 µg/mL (≈ 2.99 µM) | 0.125 µg/mL (≈ 0.187 µM) | 0.25 µg/mL (≈ 0.374 µM) |  |  |  | 
8 | CS[C@H]1O[C@H]([C@H](NC(=O)[C@H]2NC[C@@H]3C[C@H](CC(C)C)CCO[C@H]32)[C@H](C)Sc2ccc(CO)cc2)[C@H](O)[C@H](O)[C@H]1O [FSA-09-05-069, (4S,5aS,8S,8aR)-N-((1S,2S)-2-((4-(Hydroxymethyl)phenyl)thio)-1-((2R,3R,4S,5R,6R)-3,4,5-trihydroxy-6-(methylthio)tetrahydro-2H-pyran-2-yl)propyl)-4-isobutyloctahydro-2H-oxepino[2,3-c]pyrrole-8-carboxamide] | 4 µg/mL (≈ 6.68 µM) | 16 µg/mL (≈ 26.7 µM) | 64 µg/mL (≈ 107 µM) | 128 µg/mL (≈ 214 µM) | 16 µg/mL (≈ 26.7 µM) | 1 µg/mL (≈ 1.67 µM) | 128 µg/mL (≈ 214 µM) | 1 µg/mL (≈ 1.67 µM) | 0.125 µg/mL (≈ 0.209 µM) | 0.25 µg/mL (≈ 0.417 µM) |  |  |  | 
9 | CS[C@H]1O[C@H]([C@H](NC(=O)[C@H]2NC[C@@H]3C[C@H](CC(C)C)CCO[C@H]32)[C@H](C)Sc2ccc(-c3cccnc3)cc2)[C@H](O)[C@H](O)[C@H]1O [FSA-09-05-074, (4S,5aS,8S,8aR)-4-Isobutyl-N-((1S,2S)-2-((4-(pyridin-3-yl)phenyl)thio)-1-((2R,3R,4S,5R,6R)-3,4,5-trihydroxy-6-(methylthio)tetrahydro-2H-pyran-2-yl)propyl)octahydro-2H-oxepino[2,3-c]pyrrole-8-carboxamide] | 4 µg/mL (≈ 6.19 µM) | 2 µg/mL (≈ 3.1 µM) | 2 µg/mL (≈ 3.1 µM) | 32 µg/mL (≈ 49.5 µM) | 4 µg/mL (≈ 6.19 µM) | 0.5 µg/mL (≈ 0.774 µM) | 32 µg/mL (≈ 49.5 µM) | 1 µg/mL (≈ 1.55 µM) | 0.125 µg/mL (≈ 0.194 µM) | 0.25 µg/mL (≈ 0.387 µM) |  |  |  | 
10 | CS[C@H]1O[C@H]([C@H](NC(=O)[C@H]2NC[C@@H]3C[C@H](CC(C)C)CCO[C@H]32)[C@H](C)Sc2ccc(CN3CCNCC3)cc2)[C@H](O)[C@H](O)[C@H]1O [FSA-09-05-076, (4S,5aS,8S,8aR)-4-Isobutyl-N-((1S,2S)-2-((4-(piperazin-1-ylmethyl)phenyl)thio)-1-((2R,3R,4S,5R,6R)-3,4,5-trihydroxy-6-(methylthio)tetrahydro-2H-pyran-2-yl)propyl)octahydro-2H-oxepino[2,3-c]pyrrole-8-carboxamide] | 8 µg/mL (≈ 12 µM) | 16 µg/mL (≈ 24 µM) | 128 µg/mL (≈ 192 µM) | 128 µg/mL (≈ 192 µM) | 16 µg/mL (≈ 24 µM) | 4 µg/mL (≈ 6 µM) | 16 µg/mL (≈ 24 µM) | 8 µg/mL (≈ 12 µM) | 1 µg/mL (≈ 1.5 µM) | 0.25 µg/mL (≈ 0.375 µM) |  |  |  | 
